Measurements reported in patent US9879243B2, “Culture medium for cell growth and transfection” (LIFE TECHNOLOGIES CORPORATION, priority 2001, dated 2018).

What was measured:
293 cells = assay: Effect of replacement compounds on the growth of 293 cells in 293 SFM without transferrin, three passages; type: cell-based, human; conditions: third passage
Description: Semi-confluent adherent cultures of 293 Cells (ATCC, CRL 1573) are readily adapted to suspension culture. The cells are first detached with a solution of Trypsin-EDTA (0.05% Trypsin, 0.53 mM Na4EDTA), and then resuspended in conventional medium supplemented with 10% FBS to inhibit the trypsin. The resuspended cells are centrifuged at 200×g for five minutes.
The initial seeding density of the 293 cells after conversion to suspension culture is 1×10^6 cells/mL. The cells are shaken on a rotary shaker at 150 rpm in a 37° C. incubator equilibrated with 8% CO2-92% air. […] Because 293 cells have a tendency to aggregate, the cells can be vortexed vigorously for approximately 45 seconds to obtain a predominantly single cell suspension at the time of passaging and counting. After several passages in suspension culture, the maximum achievable density can be determined.
For replacement compound evaluation, 293 cells were established in 125 mL shaker flasks at an initial viable seeding density of 2×10^5 cells/mL in a final volume of 20 mL. All cultures were maintained at 37° C. in humidified air containing 8% CO2. To eliminate transferrin carry-over effects, cells were subcultured at 4 day intervals for a total of three passages. At each subculturing, cells were seeded at a density of 2×10^5 cells/mL. Positive control cultures contained 5 μg/mL human holo-transferrin while negative control cultures were established in the absence of either transferrin or replacement compound. Replacement compound stocks were prepared at 0.1M-0.2M in ddH2O and solubilized when necessary using 5N NaOH or HCl. Iron complexes were established using 0.2 M replacement compound and iron stocks mixed 1:1 (v/v) and incubated for 5-10 minutes at 22° C. All solutions containing replacement compounds were filter sterilized using a 0.22 μm Millex-GV filter prior to addition to transferrin and serum-free media.
Except where noted, replacement compounds were evaluated either alone or in combination with ferric chloride or ferrous sulfate at 25 μM, 50 μM and 100 μM. When used in combination, the replacement compounds were used in equimolar concentration with iron ions. Values in Table 4 represent the mean percentage of control growth for duplicate cultures determined at the third passage.
When added to the medium formulation uncomplexed, the replacement compound is listed alone, when added as a complex with a transition metal, the source of the transition metal is listed with the replacement compound.

Sp2/0 cells = assay: Effect of replacement compounds on the growth of Sp2/0 cells in CD Hybridoma medium without transferrin, three passages; type: cell-based; conditions: third passage
Description: The ability of replacement compounds to support cellular growth in the absence of transferrin was evaluated using Sp2/0 cells maintained in CD Hybridoma medium (Invitrogen Corporation, Carlsbad, Calif.).
Stock cultures containing 5 μg/mL human holo-transferrin were prepared in CD Hybridoma medium. For replacement compound evaluation, Sp2/0 cells were established at an initial viable cell density of 0.5×10^5 cells/mL in stationary culture using 75 cm^2 tissue culture flasks in a final volume of 20 mL. All cultures were maintained at 37° C. in humidified air containing 8% CO2. To eliminate transferrin carry-over effects, cells were subcultured at the same seeding density at 4 day intervals for a total of three passages. Positive control cultures contained 5 μg/mL human holo-transferrin while negative control cultures were established in the absence of either transferrin or replacement compound. Replacement compound stocks were prepared at 0.1M-0.2M in ddH2O and solubilized when necessary using 5N NaOH or HCl. Iron complexes were established using 0.2M replacement compound and iron stocks mixed 1:1 (v/v) and incubated for 5-10 minutes at 22° C. All solutions containing replacement compounds were filter sterilized using a 0.22 μm Millex-GV filter prior to addition to transferrin and serum-free media.
Except where otherwise noted, replacement compounds were evaluated either alone or in combination with ferric chloride or ferrous sulfate at 25 μM, 50 μM and 100 μM. Values in the table represent the mean percentage of control growth for duplicate cultures determined at the third passage.
When added to the medium formulation un-complexed, the replacement compound is listed alone, when added as a complex with a transition metal, the source of the transition metal is listed with the replacement compound.

[1] = 100 μM, control 5 μg/mL human holo-transferrin
[2] = 25 μM, control 5 μg/mL human holo-transferrin
[3] = 25 μM, control 5 μg/mL human holo-transferrin, iron equimolar where combined
[4] = 50 μM, control 5 μg/mL human holo-transferrin

Row | Molecule | mean percentage of control growth (293 cells; [1]) | mean percentage of control growth (Sp2/0 cells; [2]) | mean percentage of control growth (Sp2/0 cells; 50 μM) | mean percentage of control growth (Sp2/0 cells; 100 μM) | mean percentage of control growth (293 cells; [3]) | mean percentage of control growth (293 cells; [4]) | other results
1 | 2-Hydroxynicotinic Acid•Ferric Chloride | 0 percentage of control growth | 64 percentage of control growth | 82 percentage of control growth | 85 percentage of control growth | – | – | mean percentage of control growth (293 cells; 150 μM): 0 percentage of control growth; mean percentage of control growth (293 cells; 200 μM): 99 percentage of control growth
2 | [Cl][Fe]([Cl])[Cl].c1ccc(-c2ccccn2)nc1 [2,2-Dipyridyl•Ferric Chloride] | 0 percentage of control growth | – | – | – | 51 percentage of control growth | 96 percentage of control growth | –
3 | O=C(O)c1ccccn1.O=S(=O)([O-])[O-].[Fe+2] [2-Pyridinecarboxylic Acid•Ferrous Sulfate] | 0 percentage of control growth | – | – | – | 67 percentage of control growth | 48 percentage of control growth | –
4 | Cc1occc(=O)c1O.[Cl][Fe]([Cl])[Cl] [3-Hydroxy-2-Methyl-4-Pyrone•Ferric Chloride] | – | 60 percentage of control growth | 71 percentage of control growth | 75 percentage of control growth | – | – | –
5 | O=[N+]([O-])c1ncccc1O.[Cl][Fe]([Cl])[Cl] [3-Hydroxy-2-Nitropyridine•Ferric Chloride] | – | 52 percentage of control growth | 62 percentage of control growth | 72 percentage of control growth | – | – | –
6 | [O-][n+]1cccc(O)c1 [3-Hydroxypyridine-N-Oxide] | 4 percentage of control growth | – | – | – | 4 percentage of control growth | 4 percentage of control growth | –
7 | CC(=O)N[C@@H](CS)C(=O)O.[Cl][Fe]([Cl])[Cl] [N-Acetyl-Cysteine•Ferric Chloride] | 52 percentage of control growth | – | – | – | 88 percentage of control growth | 82 percentage of control growth | –
8 | O=C(O)CN(CC(=O)O)CC(=O)O [Nitriloacetic Acid] | – | 0 percentage of control growth | 0 percentage of control growth | 0 percentage of control growth | – | – | –
9 | Acetohydroxamic Acid•Ferric Chloride | 0 percentage of control growth | – | – | – | 83 percentage of control growth | 22 percentage of control growth | mean percentage of control growth (Sp2/0 cells; 5 μM): 40 percentage of control growth; mean percentage of control growth (Sp2/0 cells; 10 μM): 48 percentage of control growth; mean percentage of control growth (Sp2/0 cells; 20 μM): 47 percentage of control growth
10 | Asparagine•Ferric Chloride | – | 36 percentage of control growth | 51 percentage of control growth | 54 percentage of control growth | – | – | –
11 | Glutamic Acid•Ferric Chloride | 83 percentage of control growth | – | – | – | 102 percentage of control growth | 68 percentage of control growth | –
12 | Glutamine•Ferric Chloride | – | 36 percentage of control growth | 55 percentage of control growth | 65 percentage of control growth | – | – | –
13 | Glycine•Ferric Chloride | 72 percentage of control growth | 34 percentage of control growth | 61 percentage of control growth | 56 percentage of control growth | 81 percentage of control growth | 71 percentage of control growth | –
14 | Mimosine•Ferric Chloride | 80 percentage of control growth | – | – | – | 64 percentage of control growth | 55 percentage of control growth | –
15 | Morpholine•Ferric Chloride | – | 54 percentage of control growth | 64 percentage of control growth | 81 percentage of control growth | – | – | –
16 | Myo-lnositol•Ferric Chloride | 85 percentage of control growth | – | – | – | 79 percentage of control growth | 87 percentage of control growth | –
17 | Nitriloacetic Acid•Ferrous Sulfate | 0 percentage of control growth | – | – | – | 75 percentage of control growth | 95 percentage of control growth | –
18 | Sorbitol•Ferrous Sulfate | 83 percentage of control growth | – | – | – | 58 percentage of control growth | 69 percentage of control growth | –
